The values below come from PubChem BioAssay (NCI).

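In this assay, cells in 96-well plates receive the compound at five concentrations for 48 hours. Endpoints are linearly interpolated between the surrounding concentrations. The concentration for full growth arrest is given as TGI.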

Common to all, as to experiment: inhibition of tumour cell growth, NCI panel, 48 h
The test system of experiment [1] is ACHN renal.
Experiment [2] deals with EKVX NSCLC.
For experiment [3], the system named is HCC-2998 colon.
Experiment [4] deals with HCT-15 colon.
Experiment [5] relates to IGROV1 ovarian.
In experiment [6] the test system is MCF7 breast.
For experiment [7], the system named is MDA-N.
Experiment [8] concerns NCI-H522 lung.
Experiment [9] deals with OVCAR-4 ovarian.
Experiment [10] deals with SNB-75 CNS.
Experiment [11] concerns T-47D breast.

As for `CCOC(=O)CNc1c(OCc2ccccc2)c(=O)c1=O`, the TGI in experiment [1], in experiment [2], in [3], in [4], in [5] and in experiment [6] was over 100 µM each time. In addition, the TGI in experiment [7], in [8], in experiment [9], in experiment [10] and in experiment [11] was over 100 µM each time.

With `c1ccc2c(c1)ccn2CCc1c[nH]c2ccccc12`, the TGI in experiment [1], in experiment [2], in experiment [3], in experiment [4], in experiment [5] and in experiment [6] was over 10 µM throughout. The TGI in experiment [7], in experiment [8], in experiment [9], in experiment [10] and in [11] was over 10 µM in each case.

As for `Nc1cc2[nH]c(=O)c(=O)[nH]c2cc1N`, the TGI in experiment [1], in [2], in [3], in experiment [4], in [5] and in experiment [6] was over 100 µM throughout. The TGI in experiment [7], in experiment [8], in experiment [9], in [10] and in experiment [11] was over 100 µM each time.

Regarding `CON(C)C(=O)CNC(=O)OCC1c2ccccc2-c2ccccc21`, the TGI in [1], in experiment [2], in experiment [3], in experiment [4], in experiment [5] and in experiment [6] was over 100 µM in each case. For the same compound, the TGI in experiment [7], in experiment [8], in experiment [9], in [10] and in [11] was over 100 µM in each case.

Turning to `Cc1ccc([N+](=O)[O-])cc1S(=O)(=O)Nc1ccc(C2=NNC(c3ccccc3)C2)cc1` (stereo unspecified), the TGI was 54.2 µM in experiment [1]; over 100 µM in [2]; 44.9 µM in experiment [3]; 62.1 µM in experiment [4]; over 100 µM in [5]; 43.7 µM in experiment [6]. The TGI in experiment [7] is 92.7 µM; in experiment [8], 57 µM; in experiment [9] it was 54.4 µM; in experiment [10], over 100 µM; in [11], 28.5 µM.

Turning to `CCN(CC)C(=S)N/N=C(/C)c1cccc(/C(C)=N\NC(=S)N(CC)CC)n1`, the TGI was found to be 4.61 µM in experiment [1]; 12.5 µM in experiment [2]; 23.8 µM in [3]; 17.1 µM in [4]; 8.08 µM in [5]; 5.3 µM in experiment [6]. The TGI in experiment [7] came out at 21.4 µM; in [8], 16 µM; in experiment [9] it was 7.32 µM; in [10] it was 10.2 µM; in [11], 16.9 µM.

Turning to `O=C1/C(=N/O)Cc2c(Br)ccc(Br)c21`, the TGI in experiment [1], in [2], in experiment [3], in [4], in experiment [5] and in experiment [6] was over 100 µM each time. Further, the TGI in experiment [7] is over 100 µM; in [8], 91.3 µM; in [9], over 100 µM; in experiment [10], over 100 µM; in experiment [11], over 100 µM.

In the case of `CCOC(=O)N/N=C(/N)c1cccc([N+](=O)[O-])c1`, the TGI in [1], in experiment [2], in [3], in experiment [4], in experiment [5] and in experiment [6] was over 100 µM in each case. In addition, the TGI in [7], in [8], in experiment [9], in [10] and in experiment [11] was over 100 µM throughout.

On to `CC1(C)NC2C(=O)c3c([nH]c4ccccc34)[C@]3(C)CCC1CC23` (stereo partly specified), for which the TGI in experiment [1], in experiment [2], in experiment [3], in experiment [4], in [5] and in [6] was over 100 µM each time. Further, the TGI in experiment [7] was over 100 µM; in experiment [8] it was over 100 µM; in experiment [9], over 100 µM; in experiment [10], over 100 µM; in experiment [11] it was 90.8 µM.

Regarding `COc1cc(CNCc2cc(OC)c(OC)c(OC)c2)cc(OC)c1OC`, the TGI in [1], in [2], in experiment [3], in experiment [4], in experiment [5] and in experiment [6] was over 10 µM each time. Also, the TGI in experiment [7] is over 10 µM; in [8], over 6.46 µM; in [9] it was over 10 µM; in experiment [10], over 10 µM; in experiment [11] it was over 10 µM.

For the compound `CCCCN1C(=O)N(c2ccc(OCC)cc2)C2N(CCCC)C1C(C)(C)C2(C)C` (stereo unspecified), the TGI in experiment [1] is over 100 µM; in experiment [2] it was 50.6 µM; in experiment [3], over 100 µM; in experiment [4], over 100 µM; in experiment [5], over 100 µM; in experiment [6] it was 47.5 µM. Besides, the TGI in [7], in [8], in [9], in [10] and in experiment [11] was over 100 µM in each case.

As for `Nc1nc(N)c2ncn(-c3ccc(Cl)cc3)c2n1`, the TGI in experiment [1] is over 100 µM; in [2], over 100 µM; in experiment [3], over 100 µM; in experiment [4], over 100 µM; in experiment [5], 96.3 µM; in experiment [6], over 100 µM. Further, the TGI is over 100 µM in [7]; over 100 µM in experiment [8]; over 100 µM in experiment [9]; 59.1 µM in experiment [10]; over 100 µM in [11].

In the case of `COCN(CCC1=CCCCC1)C(=O)OC`, the TGI in experiment [1], in [2], in [3], in [4], in experiment [5] and in experiment [6] was over 100 µM each time. Further, the TGI in [7], in experiment [8], in [9], in experiment [10] and in experiment [11] was over 100 µM in each case.

In the case of `CCN(CC)C(=O)Cn1c(C)cc2ccccc21`, the TGI in [1], in experiment [2], in [3], in experiment [4], in [5] and in experiment [6] was over 100 µM throughout. Also, the TGI in experiment [7], in experiment [8], in [9], in experiment [10] and in [11] was over 100 µM in each case.

Take `CC1OC(OC2C(O[C@H]3CC[C@@]4(C)C(=CC[C@H]5[C@@H]6C[C@@H]7O[C@]8(CC[C@@H](CO)CO8)[C@@H](C)[C@@H]7[C@@]6(C)CC[C@@H]54)C3)OC(CO)C(O)C2OC2OC(CO)C(O)C(O)C2O)C(O)C(O)C1O` (stereo partly specified): the TGI in experiment [1] came to 3.25 µM; in experiment [2], 3.96 µM; in [3], 2.97 µM; in experiment [4], 3.94 µM; in experiment [5], 4.05 µM; in [6], 3.15 µM. The TGI in experiment [7] came to 3.06 µM; in [8], 3.19 µM; in experiment [9], 3.69 µM; in experiment [10] it was 3.06 µM; in experiment [11], 4.02 µM.

As to `C[N+](C)(C)CC1CCCCCCCCCCC1=O` (stereo unspecified), the TGI in experiment [1], in experiment [2], in experiment [3], in experiment [4], in experiment [5] and in [6] was over 100 µM throughout. In addition, the TGI in experiment [7], in [8], in experiment [9], in experiment [10] and in experiment [11] was over 100 µM each time.
